Data set [1] in a line: Dye-lipid binding by fluorescence lipid titration. As to conditions: for KA/KP ratio of binding constants of alcohol and phosphate: liposome suspensions. Type of data set: physicochemical. The protocol: Dye-lipid binding. The binding of the dyes to lipid membranes was determined by fluorescence lipid titration^21 with large unilamellar vesicles (LUVs) made of 1-palmitoyl-2-oleoyl-phosphatidylcholine (POPC). The purity of the lipids was checked by 2-dimensional TLC^22. The vesicles were made by extrusion^23 in Tris-NaCl buffer (20 mM Tris, 100 mM NaCl, pH 8.1), using an extrusion apparatus and polycarbonate filters with 100 nm pore size (both Avestin Europe, Mannheim, Germany). Vesicle size was determined by quasielastic light scattering using an argon ion laser (Spectra-Physics, Darmstadt, Germany), a photomultiplier (Brookhaven Instruments, Vienna, Austria) and a correlator (ALV-5000, Langen, Germany). The lipid concentration was determined by a chromogenic enzyme assay (Biomerieux, Marcy I'Etoile, France). The standard deviation of three concentration measurements for every vesicle preparation was always below 4%. Vesicles were stored under argon at 4° C. in 15 ml Falcon Centrifuge Tubes (BD Labware Europe, Le Pont de Claix, France) and used within three days.
To measure dye binding constants, we prepared 1 mM solutions of the dyes 1-3 by ultrasonication in Ethanol (1) or Tris-NaCl buffer (2,3). […] In the same buffer, suspensions of POPC vesicles with concentrations ranging from 100 nM to 10 mM were prepared by dilution of stock solutions. Dye and lipid were pre-thermostatted to 25° C. […] The fluorescence emission recorded at 600 nm with excitation at 488 nm was used for the evaluation of the partition coefficients.
Dye binding to lipid. When styryl hemicyanines bind to lipid bilayers, their quantum yield of fluorescence is enhanced. […] We take advantage of that effect to examine the binding of Di-4-ASPP phosphate and Di-4-ASPP alcohol to lipid membranes by fluorescence titration^21. For comparison Di-4-ASPBS was also included in the investigation.
Dispersions of large lipid vesicles (Ø≈100 nm) were made from palmitoyl-oleoyl-phosphatidylcholine (POPC) with lipid concentrations ranging over five orders of magnitude. […] The fluorescence intensity was enhanced with increasing concentration of lipid for all three dyes. The enhancement was shifted to higher lipid concentrations in the order Di-4-ASPP alcohol, Di-4-ASPBS and Di-4-ASPP phosphate.
Binding. The dyes Di-10-phosphato-ASPBS (Di-10P-ASPBS) and Di-12-phosphato-ASPBS (Di-12P-ASPBS) as well as the corresponding products after enzymatic hydrolysis Di-10-hydroxy-ASPBS (Di-10A-ASPBS) and Di-12-hydroxy-ASPBS (Di-12A-ASPBS) were synthesized by organic chemical methods. Their binding to lipid membranes was tested by fluorescence lipid titration (cf. page 15, section dye binding to lipid). The binding constants amounted to 27 M^−1 (Di-10P-ASPBS), 250,000 M^−1 (Di-10A-ASPBS), 2100 M^−1 (Di-12P-ASPBS) and 3,000,000 M^−1 (Di-12P-ASPBS) (FIGS. 14 and 15 (center and right hand side)). The difference in binding constants between dye alcohol and dye phosphates (or dye precursors) therefore amounted to a factor of 10,000 for the pair Di-10P-ASPBS/Di-10A-ASPBS and to a factor of 1000 for the pair Di-12P-ASPBS/Di-12A-ASPBS. The binding curve for the more lipophilic pair Di-12P-ASPBS/Di-12A-ASPBS is shifted to […] lipid concentrations.

A short description of data set [2]: Enzyme induced staining of giant vesicles. Type of data set: biochemical. The settings on record: giant POPC vesicles, 9.8 μM dye phosphate, PLAP added. Here is the method: Enzyme induced staining of giant vesicles. Giant POPC vesicles were prepared by electroswelling^27,28. 5 μl of a 2 mM lipid solution in diethylether/methanol (9:1, v/v) were applied to a pair of planar electrodes of indium tin oxide coated with 70 nm of silica. After evaporation of the solvent under reduced pressure (0.1 mbar), 2 ml of 300 mM sucrose were added and giant vesicle formation was promoted by applying AC voltage to the electrodes. After formation was complete, vesicles were transferred to 35 mm polypropylene cell culture dishes (BD Biosciences Europe, Le Pont de Claix, France) and diluted in the same buffer. They were used the same day.
For enzyme kinetic measurements at room temperature, 400 μl of the giant vesicle stock solution were transferred to a culture dish containing 3,600 μl buffer (20 mM Tris, 100 mM NaCl, 120 mM Glucose, pH 8.1). […] The fluorescence of a selected giant vesicle with a diameter of 10 to 40 μm was observed using a microscope (Axioskop, Zeiss, Oberkochen, Germany) equipped with a 100 water immersion objective and a b/w CCD camera (Sony ICX 285 Chip, Theta System, Gröbenzell, Germany). […] The fluorescence was detected through the dichroic mirror and a long pass filter (510 nm). […] Images were recorded every 10 or 20 seconds before and after addition of the phosphatase. […]

Data set [3] relates to phosphatase expressing cells. The data set is described as follows: Destaining of cells after enzyme induced staining. It counts as cell-based. Here is the method: FIG. 18. Destaining. Cells were incubated with Di-12P-ASPBS for 30 seconds, then the medium containing the dye precursor was removed and the cells were washed twice in buffer containing no dye. Fluorescence images were recorded with excitation filter 450/50 nm, emission filter 510 nm, dichroic mirror 505 nm. A. Brightfield image of cells and fluorescence images of cells illustrating destaining of the cell membrane by diffusion of the dye into the bulk medium. B. Time course of destaining. The maximum fluorescence intensity of the membrane is plotted vs. time.
Destaining. […] Cells were incubated with Di-12P-ASPBS for 30 seconds, then the medium containing the dye precursor was removed and the cells were washed twice in buffer containing no dye.

`CCCCN(CCCC)c1ccc(/C=C/c2cc[n+](CCCOP(=O)([O-])O)cc2)cc1` [Di-4-ASPP phosphate]: in data set [1] (POPC vesicles, Tris-NaCl buffer pH 8.1, 25° C., dye 0.5 μM), the “average binding constant K to lipid membrane” value worked out at 1140 ± 140 M⁻¹. Moreover, the “KA/KP ratio of binding constants of alcohol and phosphate” value in data set [1] (dye concentration 9.8 μM) is “≈ 7”; in data set [1] (low dye concentrations) it was “≈ 16”. In addition, in data set [1] (−RT ln(K/KA)), the “increment of the binding energy Δ(ΔG) relative to the alcohol” value was 1.63 kcal/mol. For the same compound, the “ratio of fluorescence intensities F∞/F0” value in data set [2] is 9-13.

With Di-12-phosphato-ASPBS [Di-12P-ASPBS], the “difference in binding constants between dye alcohol and dye phosphate (precursor)” value in data set [1] (pair precursor/product dye) came out at 1000 factor. Moreover, the “membrane leaflet to which the dye binds” value in data set [3] is recorded as “binds almost exclusively to the extracellular leaflet”. For the same compound, the “fluorescence of stained membranes over time after washing” value in data set [3] (diffusion of bound dye to bulk medium) was “the fluorescence intensity of the stained membranes declined”. Moreover, the “selectivity of staining after 30 seconds incubation and washing” value in data set [3] (medium removed, washed twice) is listed as “selective staining of phosphatase expressing cells could be observed”.

These data come from patent US7611863B2, “Selective staining of biomembranes using voltage-sensitive dyes” (Max-Planck-Gesellschaft zur Foerderung der Wissenschaften …, priority 2004, dated 2009).
